Tests used:
[1] = target: human carbonic anhydrase II (hCA 2) (Homo sapiens, UniProt P00918); experiment: Human Carbonic Anhydrase II inhibition; type: biochemical; conditions: read-out: hCAII (IC50 nM)
sulfatase = target: T1, sulfatase (Homo sapiens, UniProt P08842); conditions: in women; cited from earlier work
T1 construct: host or cells: in vivo, women
T1 sequence (P08842 22-583): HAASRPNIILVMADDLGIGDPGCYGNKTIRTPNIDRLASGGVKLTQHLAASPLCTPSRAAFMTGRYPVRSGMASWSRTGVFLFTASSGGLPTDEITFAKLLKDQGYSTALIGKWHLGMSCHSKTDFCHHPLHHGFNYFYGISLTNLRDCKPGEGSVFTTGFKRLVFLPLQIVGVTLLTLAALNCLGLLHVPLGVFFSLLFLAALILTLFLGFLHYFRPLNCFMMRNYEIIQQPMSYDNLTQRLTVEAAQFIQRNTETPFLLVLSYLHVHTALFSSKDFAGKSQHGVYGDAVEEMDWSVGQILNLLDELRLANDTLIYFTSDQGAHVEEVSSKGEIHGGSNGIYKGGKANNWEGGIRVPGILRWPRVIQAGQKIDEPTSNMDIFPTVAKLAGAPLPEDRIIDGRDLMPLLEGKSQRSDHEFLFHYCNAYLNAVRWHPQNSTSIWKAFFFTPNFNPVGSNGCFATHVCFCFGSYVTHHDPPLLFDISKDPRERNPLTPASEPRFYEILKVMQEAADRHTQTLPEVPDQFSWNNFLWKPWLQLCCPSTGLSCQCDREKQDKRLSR

[2] = oral biological activity: % uterine weight increase compared to vehicle; type: in vivo, rat; conditions: Rattus norvegicus; oral, 30.0 μg
Protocol: Exemplary compounds were tested for: oral biological activity (Table 1); binding to human carbonic anhydrase II (hCA 2) (Table 2); and, for some compounds enzymatic saponification (Table 3).

[3] = system: ovarectomized female rats; conditions: compared with estradiol and ethinyl estradiol; cited from earlier work

For `C[C@]12CCC3c4ccc(OS(N)(=O)=O)cc4CCC3C1CC[C@@H]2O` (stereo partly drawn) [Compound J995, (13S,17S)-17-hydroxy-13-methyl-7,8,9,11,12,13,14,15,16,17-decahydro-6H-cyclopenta[a]phenanthren-3-yl sulfamate, reference compound], which IC50 [1] is on record?
The IC50 was 295 nM.

And the inhibition of sulfatase (sulfatase)?
Its inhibition of sulfatase is “acted as an inhibitor of sulfatase”.

And the change in vivo at 0.03 mg [2]?
Its change in vivo at 0.03 mg is 203%.

What about the “estrogenic activity after oral administration” value [3] of the same compound?
The value was “higher estrogenic activity after oral administration than estradiol and ethinyl estradiol”.

— US10273263B2, “Pro-drug forming compounds” (priority 2013, dated 2019)
